# Test results reported in US10064858B2, “Methods and compositions for treating bacterial infections with iron chelators” (THE UNITED STATES OF AMERICA, AS REPRESENTED BY THE …, priority 2011, dated 2018).
# Columns and labels:
# WBA 2090 E. faecilium = experiment: MIC, similar assays; format: cell-based
# Protocol: Individual MICs were determined following the microdilution method recommended by CLSI in cationic-adjusted Mueller-Hinton Broth (CAMHB), or M9 media. […] Tests were performed in triplicate. MIC of iron chelators were determined for noscomial ESKAPE pathogens.
# KP ndm = experiment: Checkerboard assay, chelator with antibiotic (FIC); format: cell-based, K. pneumonia
# Text: Drug interactions were initially evaluated with the “checkerboard” microdilution design, which provided a matrix of all drug combinations assayed in terms of fractions of the previously determined MIC. The checkerboard microdilution design is described in R. J. Tallarida, “Drug Synergism: Its Detection and Applications,” Journal of Pharmacology and Experimental Therapeutics, 865-872 (2001); and in R. L. White, et al., (1996), supra. FIGS. 39A and 39B show the wellplates having different concentrations of iron chelator and antibiotic, as labeled along the x-axis and y-axis.
# The checkerboard assay was used to asses other combinations of iron chelators and antibiotics. The fractional inhibitory concentration index (FIC), which was calculated as follows: FIC=(MIC A in combination/MIC A)+(MIC B in combination/MIC B). Interaction was defined as synergistic if the FIC was <1.0, preferably <0.5, no interaction if the FIC was >1.0 and <4.0, and antagonistic if the FIC was >4.0.
# The assay was run against the multi-drug resistant bacterial species AB 19606, AB 17978, KP ndm, PA PAO1, PA 27853, EC 35718, and EC 43888. Blank spaces indicate concentrations not tested. […] Against the species PA PAO1 and PA 27853, all the antibiotics except for Ami.
# Pseudomonas aeruginosa = experiment: Growth (OD600) with VK28 in M9 media with magnesium / calcium; format: cell-based; details: 24 hours
# Protocol: Pseudomonas aeruginosa was grown similar to as described in Example 21 in M9 media containing 2 mM MgSO4 for 24 hours in the presence of 0 μg/ml, 50 μg/ml, 100 μg/ml, or 200 μg/ml VK28. The OD600 was measured at 0, 4, and 24 hour and the results are shown in the time-kill curves of FIG. 20.
# In this example, strains of MR Staphylococcus aureus (MRSA), Acinetobacter baumannii (Acinetobacter), Escherichia coli (E. coli), and Pseudomonas aeruginosa (Pseudomonas) were grown in M9 media in the presence of 2 mM MgSO4 and 1.35 mM CaCl2 for 24 hours in the presence or absence of 0 μg/ml, 50 μg/ml, 100 μg/ml, or 200 μg/ml of VK28. The OD600 was measured at 24 hour and the results are shown in the bar graph of FIG. 21.
# [1] = rat; systemically/intravenously; cited from earlier work
# E. coli O157:H7 = experiment: Time-kill assay, Apo6619 with Rifampin; format: cell-based; details: 1.5×MIC Apo6619 in combination with 0.75×MIC Rifampin; 0, 5 and 24 hours
# Protocol: Reductions in colony forming units (CFU)/mL were determined over time (time-kill assay) after exposure to VK28 and deferiprone (DFP), the two iron chelators that performed best in MIC assays when compared to controls. To better represent the iron content found in the human body, MIC and time-kill assays were also determined in minimal media and tissue culture media. Time-Kill assays were performed as previously described in G. P. Neupane et al., “In vitro time-kill activities of ciprofloxacin alone and in combination with the iron chelator deferasirox against Vibrio vulnificus,” European Journal of Clinical Microbiology and Infectious Diseases, 407-410 (2010); and R. L. White, et al., “Comparison of Three Different In Vitro Methods of Detecting synergy: Time-Kill, Checkerboard, and E test,” Journal of Antimicrobial Agents and Chemotherapy, 1914-1918 (1996). Initial inocula, for example 1×10^6 CFU/mL or 1×10^7 CFU/mL were challenged with iron chelator with and/or without an antibiotic. […] Time-kill results were analyzed by determining the change in log 10 numbers of CFU/ml at 0, 6, and 24 h, compared to counts at 0 h. […]
# In this example, time-kill assays were performed as described in Example 9 using Apo6619 as the iron chelator in combination with Rifampin against E. coli O157:H7. […] Time-kill results were analyzed by determining the change in log 10 numbers of CFU/mL at 0, 5 and 24 hours.
compound,measurement,setting,value
"Cc1c(O)c(=O)ccn1C [ApoL1, 3-hydroxy-1,2-dimethyl-4(1H)-pyridone]",MIC,WBA 2090 E. faecilium,600 to 700 µg/mL
same,FIC,KP ndm; in combination with Colisitin,1.25
same,FIC,KP ndm; in combination with Rifampin,0.75
"OCCN1CCN(Cc2ccc(O)c3ncccc23)CC1 [VK28, 5-(4-(2-hydroxyethyl)piperazin-1-ylmethyl)-8-hydroxyquinoline]",inhibition of growth (OD600),"Pseudomonas aeruginosa; M9 with 2 mM MgSO4, 50-200 μg/ml VK28",inhibition of growth of Pseudomonas aeruginosa is not reduced in the presence of magnesium
same,inhibition of growth (OD600),Pseudomonas aeruginosa; M9 with 2 mM MgSO4 and 1.35 mM CaCl2,inhibition of growth of a number of strains of bacteria is not reduced in the presence of magnesium and calcium
same,dose showing toxicity,[1],70 mg/kg
"CNC(=O)c1c(O)c(=O)cc(C)n1C1CC1 [Apo6619, 1-cyclopropyl-3-hydroxy-6-methyl-4-oxo-1,4-dihydro-pyridine-2-carboxylic acid methylamide]",time kill curves,E. coli O157:H7,combinational effect
